In patent publication US20180237362A1, “NOVEL POLYGODIAL ANALOGS FOR THE TREATMENT OF CANCER AND OTHER PROLIFERATIVE DISEASES” (THE BOARD OF REGENTS OF THE UNIVERSITY OF TAXAS SYSTEM, priority 2015, published 2018):
Where two headings read alike, the source gives them in different places.

Experiments:
[1] = test system: human A549 non-small cell lung cancer (NSCLC); test: MTT antiproliferative assay, A549; type: cell-based; conditions: for GI50: 72 h treatment, MTT assay, sextuplicates, read-out: GI50 in vitro values, A549
Protocol: (§1) Human mammary carcinoma MCF-7 (ATCC HTB22) cells were cultured in RPMI supplemented with 10% FBS. The U87 cells (ATCC HTB-14) were cultured in DMEM culture medium, while the A549 cells (DSMZ ACC107) were cultured in RPMI culture medium supplemented with 10% heat-inactivated FBS. The GBM Hs683 (ATCC HTB-138) cells were cultivated in DMEM supplemented with 10% FBS. The human uterine sarcoma MES-SA (ATCC CRL1966) and MES-SA/D×5 cells were cultured in RPMI-1640 medium supplemented with 10% FBS with MES SA/D×5 maintained in the presence of 500 nM Doxorubicin (Sigma). SKMEL-28 cells (ATCC HTB72) and U373 GBM cells (ECACC 08061901) were cultured in RPMI culture medium supplemented with 10% heat-inactivated FBS. Cell culture media were supplemented with 4 mM glutamine (Lonza code BE17-605E), 100 μg/mL gentamicin (Lonza code 17-5182), and penicillin-streptomycin (200 units/ml and 200 μg/ml) (Lonza code 17-602E). The MDA-MB-231 (ATCC HTB-26) epithelial mammary adenocarcinoma cells were cultured in Eagle's minimum essential medium (EMEM; Invitrogen) containing 5% fetal calf serum (FCS, Cambrex), 2 mM L-glutamine (Invitrogen), 0.06% HEPES (Invitrogen) and penicillin (50 IU/ml)/streptomycin (50 µg/ml; Invitrogen) at 37° C. in a humidified atmosphere of 5% CO2 in air. Transformed mouse NPCs were cultured in suspension under neurosphere conditions at 37° C. in a humidified atmosphere of […] and 5% CO2 in DMEM F12 (Invitrogen 11320-074) supplemented with 1×B27 supplement (Invitrogen 17504-044), 5% penicillin-streptomycin (Biochrom 10378-017), 10 ng/ml EGF (R&D systems 236-EG), 10 ng/ml FGF (PeproTech 100-18B).
(§2) Antiproliferative properties of the synthesized compounds were evaluated by the MTT assay. All compounds were dissolved in DMSO at a concentration of either 100 μM or 50 μM prior to cell treatment. The cells were trypsinized and seeded at various cell concentrations depending on the cell type. The cells were grown for 24 h to 72 h, treated with compounds at concentrations ranging from 0.001 to 100 μM and incubated for 48 or 72 h in 100 or 200 μL media depending on the cell line used. The number of experiments and replicates varied depending on the cell line. Cells treated with 0.1% DMSO were used as a negative control; 1 μM PAO was used as a positive control.
(§3) The synthesized C12-Wittig derivatives were evaluated for antiproliferative activities in a panel of cancer cell lines that included apoptosis-resistant human U373 glioblastoma (GBM) (Lefranc et al., 2013), human A549 non-small cell lung cancer (NSCLC) and human SKMEL-28 melanoma (Mathieu et al., 2009) as well as apoptosis-sensitive human Hs683 anaplastic oligodendroglioma (Lefranc et al., 2013) and human MCF-7 breast cancer (Frolova et al., 2013).

[2] = test system: U87 glioblastoma cell cultures; test: MTT growth curves, U87; type: cell-based, human; conditions: apoptosis-resistant U87 GBM; concentrations up to 100 μM
Protocol: as §1
(§4) Antiproliferative properties of the synthesized compounds were evaluated by the MTT assay. All compounds were dissolved in DMSO at a concentration of either 100 μM or 50 μM prior to cell treatment. The cells were trypsinized and seeded at various cell concentrations depending on the cell type. […]

[3] = test system: human SKMEL-28 melanoma; test: MTT antiproliferative assay, SKMEL-28; type: cell-based; conditions: sextuplicates, read-out: GI50 in vitro values, SKMEL-28
Protocol: as §1, §2, §3

[4] = test system: human MCF-7 breast cancer; test: MTT antiproliferative assay, MCF-7; type: cell-based; conditions: sextuplicates, read-out: GI50 in vitro values, MCF-7
Protocol: as §1, §2, §3

[5] = test system: human U373 glioblastoma (GBM); test: MTT antiproliferative assay, U373; type: cell-based; conditions: 72 h treatment, sextuplicates, read-out: GI50 in vitro values, U373
Protocol: as §1, §2, §3

[6] = test system: human Hs683 anaplastic oligodendroglioma; test: MTT antiproliferative assay, Hs683; type: cell-based; conditions: sextuplicates, read-out: GI50 in vitro values, Hs683
Protocol: as §1, §2, §3

[7] = test system: panel of cancer cell lines (A549, SKMEL-28, MCF-7, U373, Hs683); test: MTT antiproliferative assay, panel of five cancer cell lines; type: cell-based, human; conditions: mean over five cell lines, 72 h treatment, MTT assay, read-out: GI50 in vitro values, Mean + SEM
Protocol: as §2, §3

[8] = test system: uterine sarcoma MES-SA cells; test: MTT antiproliferative assay, MES-SA; type: cell-based, human; conditions: Homo sapiens, MES-SA, 48 h treatment, relative to DMSO control, read-out: GI50 in vitro values, MES-SA
Protocol: as §1, §4

[9] = test system: MDR uterine sarcoma cell line MES-SA/Dx5; test: MTT antiproliferative assay, MDR MES-SA/Dx5; type: cell-based, human
Protocol: as §1, §2
Selection of the MES-SA/D×5 cell line was done according to Harker et al. (Harker & Sikic, 1985). The cells were split and allowed to adhere overnight. The next day cells were initially exposed to doxorubicin (DOX) at the concentration of 100 nM, which represented the GI50 concentration. The cells were maintained at this DOX concentration until their growth rate reached that of the untreated cells. The DOX concentration was then increased in two-fold increments following the same growth criteria at each concentration to a final DOX concentration of 500 nM. Each new DOX concentration required approximately 2 passages to reach the growth rate of the untreated cells.
Often, tumors initially respond to chemotherapy but eventually become refractory to the continuing treatment. Such acquired resistance commonly occurs through the development of a multi-drug resistant phenotype (MDR) (Gottesman et al., 2002 and Saraswathy & Gong, 2013) affecting many common chemotherapeutic agents, including the vinca alkaloids (Chen et al., 2000) and taxanes (Geney et al., 2002). In addition, the development of apoptosis resistance and MDR mechanisms is often related and concurrent (Ruefli et al., 2002 and Johnstone et al., 1999), and thus it was of interest to evaluate 5 against MDR cells. Towards this end, the MDR uterine sarcoma cell line MES-SA/D×5, established by growing the parent uterine sarcoma MES-SA in the presence of increasing concentrations of doxorubicin and resistant to multiple functionally and structurally unrelated molecules (Harker & Sikic, 1985), was utilized.

[10] = test system: OSCC cell line HSC3; test: Cell viability (Cell Titer 96 Aqueous), HSC3; type: cell-based, human; conditions: 48 hours; potency order P10, polygodial, P3
Excerpt: (§5) Human cancer cell lines were obtained from the American Type Culture Collection (ATCC, Manassas, Va., USA), the European Collection of Cell Culture (ECACC, Salisbury, UK) and the Deutsche Sammlung von Mikroorganismen und Zellkulturen (DSMZ, Braunschweig, Germany). The OSCC cell lines, Cal27 and HSC3 are derived from human primary tongue tumor. Cal27 cells were obtained from the American Type Culture Collection (Rockville, Md.). HSC3 cells were provided by Dr. Brian Schmidt. HeLa cells (cervical cancer cell line) were obtained from ATCC. Cells were cultured in DMEM, containing 10% FBS and 1% penicillin-streptomycin media, at 37° C. in 5% CO2. All cells were authenticated by Genetic DNA Laboratories.
(§6) The cytotoxicity of polygodial, P10, P3, and P27 in Cal27, HSC3, and HeLa cells was examined in vitro using a colorimetric assay, Cell Titer 96® Aqueous Non-Radioactive Cell Proliferation Assay. […] GraphPad Prism4 was used to perform statistical analysis.

[11] = test system: cervical cancer cell line HeLa; test: Cell viability (Cell Titer 96 Aqueous), HeLa; type: cell-based, human; conditions: 48 hours; potency order P10, polygodial, P3
Excerpt: as §5, §6

[12] = test system: HeLa-derived tumors; test: Mouse xenograft model, HeLa; type: in vivo, athymic nude mice
Protocol: Six-week old female athymic nude mice were used in laminar air-flow cabinet in pathogen-free conditions. They were acclimated for one week prior to the start of the study and kept at controlled temperature and humidity, with food and water. Mice were injected subcutaneously in the flank with 2×10^6 Cal27 cells or HeLa cells in 0.1 mL of sterile PBS. When the tumors reached 100 mm^3 (Cal27) and 150 mm^3 (HeLa), the mice were stratified into 4 groups, […], polygodial, P10, P3 and P27 at the concentrations noted in the figure legends.

[13] = target: T1, CHO cells that overexpress TRPV1 (CHO-TRPV1) (Homo sapiens, UniProt Q8NER1); test: Calcium imaging, CHO-TRPV1; type: cell-based; conditions: polygodial 80 μM, P10 4 μM, P3 50 μM
T1 construct: expressed in transfected cells; host or cells: CHO cells
T1 sequence (Q8NER1 whole entry): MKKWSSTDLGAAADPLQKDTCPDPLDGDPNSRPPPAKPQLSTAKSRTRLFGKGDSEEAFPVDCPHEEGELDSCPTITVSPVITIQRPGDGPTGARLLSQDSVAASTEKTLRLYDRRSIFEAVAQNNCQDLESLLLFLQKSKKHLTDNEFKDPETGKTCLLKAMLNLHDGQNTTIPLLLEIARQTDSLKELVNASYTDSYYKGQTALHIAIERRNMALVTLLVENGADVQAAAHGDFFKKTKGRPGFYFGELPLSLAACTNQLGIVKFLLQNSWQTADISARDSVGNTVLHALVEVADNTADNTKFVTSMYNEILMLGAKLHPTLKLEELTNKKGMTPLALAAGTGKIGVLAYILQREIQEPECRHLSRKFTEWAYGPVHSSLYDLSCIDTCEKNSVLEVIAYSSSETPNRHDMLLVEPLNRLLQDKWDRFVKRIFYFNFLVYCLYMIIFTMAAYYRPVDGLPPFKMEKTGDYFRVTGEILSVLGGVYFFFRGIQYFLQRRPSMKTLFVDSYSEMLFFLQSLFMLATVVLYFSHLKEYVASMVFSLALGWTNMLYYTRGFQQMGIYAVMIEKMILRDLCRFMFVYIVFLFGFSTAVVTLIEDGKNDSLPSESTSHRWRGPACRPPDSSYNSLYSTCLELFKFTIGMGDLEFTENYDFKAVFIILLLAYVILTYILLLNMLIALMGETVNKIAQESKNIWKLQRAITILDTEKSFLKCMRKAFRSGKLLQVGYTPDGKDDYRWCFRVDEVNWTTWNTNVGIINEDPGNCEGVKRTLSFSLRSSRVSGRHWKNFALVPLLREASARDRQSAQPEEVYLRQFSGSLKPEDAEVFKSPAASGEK
Protocol: CHO cells that overexpress TRPV1 (CHO-TRPV1) were treated with polygodial (80 μM), P10 ([…]), or P3 (50 μM) and calcium influx was measured. Cells were also pre-treated with the TRPV1 antagonist capsazepine (CPZ; 10 μM) to determine if calcium influx via TRPV1 was inhibited. 3 μM ionomycin was used as a positive control. Fluo-4 Direct Calcium Assay Kit and Sweptfield confocal with Nikon Ti were used to visualize calcium influx and the images were analyzed using ImageJ software.

[14] = test system: HeLa cells; test: Calcium imaging, HeLa; type: cell-based, human; conditions: polygodial 80 μM, P10 4 μM, P3 50 μM
[15] = test system: HSC3 cells; test: Calcium imaging, HSC3; type: cell-based, human

Row | Structure (SMILES) | GI50 [1] [µM] | GI50 ([3]; 72 h treatment) [µM] | GI50 ([4]; 72 h treatment) [µM] | GI50 [5] [µM] | GI50 ([6]; 72 h treatment) [µM] | GI50 [7] [µM] | also measured
1 | COc1cc([C@@H]2c3cc4c(cc3[C@H](O)[C@H]3COC(=O)[C@H]23)OCO4)cc(OC)c1OC [podophyllotoxin, reference compound] |  |  |  |  |  |  | effect on proliferation/viability of all cells, A549 ([1]; apoptosis-resistant A549 NSCLC, concentrations up to 100 μM): no effect on proliferation of ca. 50% of cells; effect on proliferation/viability of all cells, U87 [2]: no effect on proliferation of ca. 50% of cells
2 | COC(=O)/C=C/C1=CCC2C(C)(C)CCC[C@]2(C)[C@@H]1C=O (stereo partly shown) |  |  |  |  |  |  | GI50 ([1]; Homo sapiens, A549): 29 ± 1 µM; GI50 ([3]; Homo sapiens, SK-MEL-28, 72 h treatment): 70 ± 1 µM; GI50 ([4]; Homo sapiens, MCF7, 72 h treatment): 28 ± 1 µM; GI50 ([5]; Homo sapiens, U373 MG): 39 ± 1 µM; GI50 ([6]; Homo sapiens, Hs 683, 72 h treatment): 33 ± 0.5 µM; GI50 ([7]; Homo sapiens): 40 ± 8 µM
3 | CC[C@]1(O)C[C@@H]2CN(CCc3c([nH]c4ccccc34)[C@@](C(=O)OC)(c3cc4c(cc3OC)N(C)[C@H]3[C@@](O)(C(=O)OC)[C@H](OC(C)=O)[C@]5(CC)C=CCN6CC[C@]43[C@@H]65)C2)C1 [Vinblastine] |  |  |  |  |  |  | GI50 [8]: 0.006 µM; change of potency against MES-SA/Dx5 MDR cell line as compared with parent MES-SA cells ([9]; 48 h MTT): lost their potency by a factor of a thousand; GI50 ([9]; Homo sapiens, MES-SA/Dx5, 48 h treatment, MTT assay, relative to DMSO control, read-out: GI50 in vitro values, MES-SA/Dx5): 5 µM
4 | CC(C)(C)OC(=O)/C=C/C1=CCC2C(C)(C)CCC[C@]2(C)[C@@H]1C=O (stereo partly shown) [Compound 8] | 29 | 41 | 32 | 40 | 29 | 34 ± 3 | 
5 | CC1(C)CCC[C@]2(C)[C@H](C=O)C(C=O)=CC[C@@H]12 [Compound P10, 9-epi-polygodial] |  |  |  |  |  |  | cancer cell viability, HSC3 [10]: reduced cancer cell viability in vitro; cancer cell viability, HeLa [11]: reduced cancer cell viability in vitro; anti-tumor effect, HeLa-derived tumors ([12]; 40 μg/100 μl intra-tumor injection every other day for 18 days, polygodial significantly more efficacious than P3): not efficacious in vivo; adverse effects, HeLa xenograft mice ([12]; mouse, in vivo): no adverse effects in vivo; TRPV1 activation (calcium influx), CHO-TRPV1 [13]: do not; calcium influx, HeLa [14]: did not induce calcium influx; reversal of calcium influx by capsazepine, HSC3 ([15]; CPZ 10 μM): not reversed; calcium influx, HSC3 ([15]; polygodial 80 μM, P10 4 μM, P3 50 μM): did induce calcium influx
6 | CC1(C)CCCC2(C)C(C=O)C(C=CC(=O)OCc3ccccc3)=CCC12 (stereo not shown) [Compound 9] | 28 | 39 | 27 | 39 | 31 | 33 ± 3 | 
7 | COC(=O)/C=C/C=C/C1=CCC2C(C)(C)CCC[C@]2(C)[C@@H]1C=O (stereo partly shown) [Compound 10] | 29 | 25 | 31 | 27 | 12 | 25 ± 3 | 

More lines, main results first:

Row | GI50 [1] [µM] | GI50 ([3]; 72 h treatment) [µM] | GI50 ([4]; 72 h treatment) [µM] | GI50 [5] [µM] | GI50 ([6]; 72 h treatment) [µM] | GI50 [7] [µM] | Structure (SMILES) | also measured
8 | 27 | 42 | 31 | 36 | 28 | 33 ± 3 | CC1(C)CCC[C@@]2(C)C1CC=C(/C=C/C#N)[C@H]2C=O (stereo partly shown) [Compound 11] | 
9 | 24 | 28 | 20 | 25 | 22 | 24 ± 1 | CC(=O)/C=C/C1=CCC2C(C)(C)CCC[C@]2(C)[C@@H]1C=O (stereo partly shown) [Compound 12] | 
10 | 26 | 37 | 27 | 37 | 28 | 31 ± 2 | CCOC(=O)C(C)=CC1=CCC2C(C)(C)CCCC2(C)C1C=O (stereo not shown) [Compound 7] | 
11 | 25 | 29 | 30 | 37 | 29 | 30 ± 2 | CCOC(=O)/C=C/C1=CCC2C(C)(C)CCC[C@]2(C)[C@@H]1C=O (stereo partly shown) [Compound 6] | 
